What was measured:
human PDHK2 (12-407) = human PDHK2 (12-407) (Homo sapiens (Human), UniProt Q15119); assay: Isothermal titration calorimetry (ITC) binding; conditions: 30° C.
Procedure: Isothermal Titration Calorimetry
ITC measurements were performed with a VP-ITC micro calorimeter (Microcal, LLC/GE Healthcare Bio-Sciences AB, Uppsala, Sweden). In general titrations were performed by titrating the protein (50 μM) to the test compound (5 μM) in 12 μl injections. All binding experiments were carried out at 30° C. In general the test compounds were diluted form DMSO stock solutions into the measurement buffer with a maximum final concentration of 1% DMSO. The measurement buffer was 20 mM HEPES, 135 mM KCl, 1 mM TCEP, 2 mM MgCl2, 15 mM NaH2PO4, pH 7.5. The human PDHK2 (12-407) was produced in E. coli as his-tagged protein and purified by affinity chromatography. The tag was removed by side specific proteolysis. Before titration the protein buffer was changed to the measurement buffer containing the same DMSO concentration as the test compound dilution. ITC data analysis was performed using Origin 7 calorimetry software from the same supplier. For most measurements a binding model of one binding site was assumed. According to the applied mathematical model it is possible to calculate the binding constant (KA), the observed binding enthalpy (ΔH^obs) as well as the stoichiometry (N) of the formed complex. Preceding analysis the raw data was corrected for the heats of dilution by extrapolating from the saturation value from the end of titration. In order to allow for direct comparison between the respective experimental series and protein preparations the protein concentration was corrected by referencing titrations to a well behaved standard inhibitor. The apparent stoichiometry values defined the fraction of binding competent protein and compensated for relative errors in protein concentration measurements. This corrected protein concentration was used to set up ITC experiment series with test compounds. Any deviations from ideal 1:1 stoichiometry observed here were attributed to errors in compound concentration. This nominal compound concentration was corrected as well to achieve 1:1 stoichiometry in the fit.

PDHK2 = PDHK2 (Homo sapiens (Human), UniProt Q15119); assay: Biochemical activity testing of PDHK2: PDC inactivation assay; conditions: human rec PDHK2, PDC inactivation assay; read-out: IC50 PDHK2 (enzyme assay)
From the text: Biochemical Activity Testing of PDHK2: PDC Inactivation Assay
The biochemical activity assay for PDHK2 is based on the inactivation of PDC through phosphorylation by PDHK2. The assay is run in two steps: the enzymatic PDHK2 reaction in which isolated PDC is phosphorylated by PDHK2 with ATP as co-substrate and the PDC activity assay in which pyruvate and NAD are converted to acetyl-CoA and NADH. The PDC activity correlates to the increase in NADH and thereby is detectable directly via the increasing fluorescence signal (Exc 340 nm, Em 450 nm). Inhibition of PDHK2 results in a lower phosphorylation status and thereby a less decrease in activity of PDC and a stronger increase in NADH fluorescence signal.
The PDC inactivation assay is performed in Greiner 384-well microtiter plates and is used for high throughput screen. […] The first fluorescence measurement is performed on a Perkin Elmer Envision (Exc 340 nm, Em 450 nm). […] Afterwards a second fluorescence measurement is performed and the PDC activity is calculated by the difference between both measurements. […] The inhibitory values (IC50) were determined using either the program Symyx Assay Explorer® or Condosseo® from GeneData.

[1] = system: PDH-E1alpha (pSer300) in HEK293T cells; assay: Cellular immunofluorescence assay for compound activity (Anti-PDH-E1alpha pSer300); type: cell-based; conditions: Homo sapiens, HEK-293T, 5 hours incubation, read-out: IC50 (cell data)
Procedure: Cellular Assay for Determination of Compound Activities
Compound activities were determined in a cellular immunofluorescence assay. Human HEK293T cells were seeded into black 384-well plates with clear bottom and grown overnight.
Next day, test compounds were added to the wells and the plates incubated for 5 hours. Following this, cells were fixed with formaldehyde, permeabilised and blocked. The primary antibody, Anti-PDH-E1alpha (pSer300), AP1064 (Merck Millipore) was added and incubated overnight in the plate wells. Next, cells were washed and the secondary antibody, Alexa Fluor 488, goat anti-rabbit ab (A-11008, Invitrogen) was added together with Hoechst 33258 (H3569, Invitrogen) and incubated for 1 hour in the plate wells. Finally, cells were washed and the plates were measured on the laser scanning cytometer acumen hci (TTpLabtech).
The raw data were normalized against a pharmacological inhibitor control and dose response curves were generated by plotting the percent effect values using the software package Genedata screener (Genedata).

Row | IC50 (PDHK2) | Structure (SMILES) | Kd (human PDHK2 (12-407)) | IC50 [1]
1 | – | C[C@@](O)(C(=O)N1CCc2c(ncn2-c2ccc(F)cc2)C1)C(F)(F)F [Compound A44, (R)-3,3,3-Trifluoro-1-[1-(4-fluoro-phenyl)-1,4,6,7-tetrahydro-imidazo[4,5-c]pyridin-5-yl]-2-hydroxy-2-methyl-propan-1-one] | < 0.3 µM | –
2 | 3 to 50 µM | COc1ccc(-n2ncc3c2[C@@H](C)CN(C(=O)[C@@](C)(O)C(F)(F)F)C3)cn1 [Compound A31, (R)-3,3,3-Trifluoro-2-hydroxy-1-[(S)-1-(6-methoxy-pyridin-3-yl)-7-methyl-1,4,6,7-tetrahydro-pyrazolo[4,3-c]pyridin-5-yl]-2-methyl-propan-1-one] | – | –
3 | – | C[C@@](O)(C(=O)N1CCc2c(ncn2-c2ccc(Cl)cc2)C1)C(F)(F)F [Compound A45, (R)-1-[1-(4-Chloro-phenyl)-1,4,6,7-tetrahydro-imidazo[4,5-c]pyridin-5-yl]-3,3,3-trifluoro-2-hydroxy-2-methyl-propan-1-one] | < 0.3 µM | –
4 | < 0.3 µM | COc1ccc(-n2ncc3c2[C@H](C)CN(C(=O)[C@@](C)(O)C(F)(F)F)C3)cn1 [Compound A30, (R)-3,3,3-Trifluoro-2-hydroxy-1-[(R)-1-(6-methoxy-pyridin-3-yl)-7-methyl-1,4,6,7-tetrahydro-pyrazolo[4,3-c]pyridin-5-yl]-2-methyl-propan-1-one] | < 0.3 µM | < 0.3 µM
